The target of the assay is T1, SIRT1 (Homo sapiens, UniProt Q96EB6).
T1 sequence (Q96EB6 1-747): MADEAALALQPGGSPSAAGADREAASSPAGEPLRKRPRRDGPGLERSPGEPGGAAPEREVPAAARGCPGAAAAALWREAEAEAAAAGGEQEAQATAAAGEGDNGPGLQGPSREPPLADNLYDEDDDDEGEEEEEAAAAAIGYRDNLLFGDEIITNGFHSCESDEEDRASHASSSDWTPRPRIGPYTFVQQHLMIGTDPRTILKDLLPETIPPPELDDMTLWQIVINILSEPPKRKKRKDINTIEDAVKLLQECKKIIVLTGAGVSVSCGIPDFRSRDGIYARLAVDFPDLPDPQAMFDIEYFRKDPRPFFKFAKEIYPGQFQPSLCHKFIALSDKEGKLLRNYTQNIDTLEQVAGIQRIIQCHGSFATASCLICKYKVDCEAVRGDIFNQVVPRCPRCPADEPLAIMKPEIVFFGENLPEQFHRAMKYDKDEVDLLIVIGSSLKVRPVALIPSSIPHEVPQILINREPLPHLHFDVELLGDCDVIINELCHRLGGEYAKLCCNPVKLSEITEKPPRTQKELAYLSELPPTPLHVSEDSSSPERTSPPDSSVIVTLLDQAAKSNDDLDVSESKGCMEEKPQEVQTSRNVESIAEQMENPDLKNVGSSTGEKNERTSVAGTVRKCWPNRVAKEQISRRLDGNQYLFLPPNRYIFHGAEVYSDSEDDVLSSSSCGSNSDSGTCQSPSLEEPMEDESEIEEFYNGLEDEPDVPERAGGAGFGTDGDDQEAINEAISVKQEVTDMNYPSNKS
Kind of assay: Trp mass spectrometry assay of SIRT1 activation. As to conditions: Trp peptide assay; for TRP Activity (EC1.5): EC1.5 = concentration that results in 150% activation of SIRT1; for Emax: maximum activity relative to control (100%), read-out: TRP MAX RESP (percent maximum fold activation). It is filed as biochemical. In outline: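 Activation read-out: mass-spec measurement of O-acetyl-ADP-ribose or deacetylated Trp peptide versus compound-free controls, giving EC1.5 and Percent Maximum Activation. Reactions ran 25 min at 25 °C, pH 7.5, with 120 μM βNAD+, 0.5 μM acetylated p53-derived peptide and 10 nM His-tagged SIRT1.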

Counter-ions that a name gives are not always drawn. Where only a bound is given, the exact number is not on record here.

Take `Cc1cc(-c2ccc3c(n2)N(C(=O)N2CCO[C@H](C)C2)[C@H]2CCN3C2)ccn1` [(9S)-8-{[(2R)-2-methylmorpholin-4-yl]carbonyl}-5-(2-methylpyridin-4-yl)-1,6,8-triazatricyclo[7.2.1.0 {2,7}]dodeca-2(7),3,5-triene hydrochloride]: the “TRP Activity (EC1.5)” value was “C (C (EC1.5>25 μM))” and the Emax is < 150%.
For `Cc1cc(-c2ccc3c(n2)N(C(=O)N2CCO[C@@H](C)C2)[C@H]2CCN3C2)ccn1` [(9S)-8-{[(2S)-2-methylmorpholin-4-yl]carbonyl}-5-(2-methylpyridin-4-yl)-1,6,8-triazatricyclo[7.2.1.0 {2,7}]dodeca-2(7),3,5-triene hydrochloride], in that order: “C (C (EC1.5>25 μM))” and < 150%.
The corresponding values for `Cc1cc(NC(=O)N2c3nc(-c4ccnc(C)c4)ccc3N3CC[C@H]2C3)ccn1` [(9S)-N,5-bis(2-methylpyridin-4-yl)-1,6,8-triazatricyclo[7.2.1.0 {2,7}]dodeca-2(7),3,5-triene-8-carboxamide] are “B (B (EC1.5 1-25 μM))” and > 150%.
The corresponding values for `Cc1cc(-c2ccc3c(n2)N(C(=O)Nc2cn(C)nn2)[C@H]2CCN3C2)ccn1` [(9S)-N-(1-methyl-1H-1,2,3-triazol-4-yl)-5-(2-methylpyridin-4-yl)-1,6,8-triazatricyclo[7.2.1.0^{2,7}]dodeca-2(7),3,5-triene-8-carboxamide] are “B (B (EC1.5 1-25 μM))” and > 150%.
On to `Cc1cc(-c2ccc3c(n2)N(C(=O)Nc2ncn(C)n2)[C@H]2CCN3C2)ccn1` [(9S)-N-(1-methyl-1H-1,2,4-triazol-3-yl)-5-(2-methylpyridin-4-yl)-1,6,8-triazatricyclo[7.2.1.0 {2,7}]dodeca-2(7),3,5-triene-8-carboxamide], for which the “TRP Activity (EC1.5)” value is “C (C (EC1.5>25 μM))” and the Emax was > 150%.
The corresponding values for `Cc1cc(-c2ccc3c(n2)N(C(=O)Nc2ccn(C)n2)[C@H]2CCN3C2)ccn1` [(9S)-N-(1-methyl-1H-pyrazol-3-yl)-5-(2-methylpyridin-4-yl)-1,6,8-triazatricyclo[7.2.1.0 {2,7}]dodeca-2,4,6-triene-8-carboxamide] are “B (B (EC1.5 1-25 μM))” and > 150%.
For the compound `Cc1cc(-c2ccc3c(n2)N(C(=O)Nc2cnn(C)c2)[C@H]2CCCN3C2)ccn1` [(9S)-N-(1-methyl-1H-pyrazol-4-yl)-5-(2-methylpyridin-4-yl)-1,6,8-triazatricyclo[7.3.1.0 {2,7}]trideca-2(7),3,5-triene-8-carboxamide], the “TRP Activity (EC1.5)” value is given as “B (B (EC1.5 1-25 μM))” and the Emax is > 150%.
For `Cc1ccc(-c2ccc3c(n2)N(C(=O)NC2CCN(C)CC2)[C@H]2CCN3C2)cn1` [(9S)-N-(1-methylpiperidin-4-yl)-5-(6-methylpyridin-3-yl)-1,6,8-triazatricyclo[7.2.1.0^{2,7}]dodeca-2(7),3,5-triene-8-carboxamide], in that order: “C (C (EC1.5>25 μM))” and < 150%.
The corresponding values for `Cc1cc(-c2ccc3c(n2)N(C(=O)Nc2ccc4[nH]ncc4c2)[C@H]2CCN3C2)ccn1` [(9S)-N-(1H-indazol-5-yl)-5-(2-methylpyridin-4-yl)-1,6,8-triazatricyclo[7.2.1.0 {2,7}]dodeca-2(7),3,5-triene-8-carboxamide] are “A (A (EC1.5<1 μM))” and > 150%.
For `Cc1ccc(-c2ccc3c(n2)N(C(=O)NCC(C)(C)C)[C@H]2CCN3C2)cn1` [(9S)-N-(2,2-dimethylpropyl)-5-(6-methylpyridin-3-yl)-1,6,8-triazatricyclo[7.2.1.0 {2,7}]dodeca-2(7),3,5-triene-8-carboxamide], in that order: “C (C (EC1.5>25 μM))” and < 150%.
`Cc1cc(-c2ccc3c(n2)N(C(=O)Nc2ccc4c(c2)OCCO4)[C@H]2CCN3C2)ccn1` [(9S)-N-(2,3-dihydro-1,4-benzodioxin-6-yl)-5-(2-methylpyridin-4-yl)-1,6,8-triazatricyclo[7.2.1.0 {2,7}]dodeca-2(7),3,5-triene-8-carboxamide]: the “TRP Activity (EC1.5)” value is “B (B (EC1.5 1-25 μM))” and the Emax is > 150%.
For `Cc1cc(-c2ccc3c(n2)N(C(=O)Nc2ccc4nn(C)cc4c2)[C@H]2CCCN3C2)ccn1` [(9S)-N-(2-methyl-2H-indazol-5-yl)-5-(2-methylpyridin-4-yl)-1,6,8-triazatricyclo[7.3.1.0 {2,7}]trideca-2,4,6-triene-8-carboxamide], in that order: “A (A (EC1.5<1 μM))” and > 150%.
For `Cc1cc(-c2ccc3c(n2)N(C(=O)Nc2ccc4c(c2)OCO4)[C@H]2CCN3C2)ccn1` [(9S)-N-(2H-1,3-benzodioxo1-5-yl)-5-(2-methylpyridin-4-yl)-1,6,8-triazatricyclo[7.2.1.0 {2,7}]dodeca-2(7),3,5-triene-8-carboxamide], in that order: “A (A (EC1.5<1 μM))” and > 150%.
For `Cc1ccc(-c2ccc3c(n2)N(C(=O)NC2CC(F)(F)C2)[C@H]2CCN3C2)cn1` [(9S)-N-(3,3-difluorocyclobutyl)-5-(6-methylpyridin-3-yl)-1,6,8-triazatricyclo[7.2.1.0 {2,7}]dodeca-2(7),3,5-triene-8-carboxamide], in that order: “B (B (EC1.5 1-25 μM))” and > 150%.
With `Cc1cc(-c2ccc3c(n2)N(C(=O)Nc2ccc4c(c2)OCCCO4)[C@H]2CCN3C2)ccn1` [(9S)-N-(3,4-dihydro-2H-1,5-benzodioxepin-7-yl)-5-(2-methylpyridin-4-yl)-1,6,8-triazatricyclo[7.2.1.0 {2,7}]dodeca-2,4,6-triene-8-carboxamide], the “TRP Activity (EC1.5)” value was “A (A (EC1.5<1 μM))” and the Emax was > 150%.
As for `Cc1cc(-c2ccc3c(n2)N(C(=O)Nc2nccnc2F)[C@H]2CCN3C2)ccn1` [(9S)-N-(3-fluoropyrazin-2-yl)-5-(2-methylpyridin-4-yl)-1,6,8-triazatricyclo[7.2.1.0^{2,7}]dodeca-2,4,6-triene-8-carboxamide], the “TRP Activity (EC1.5)” value was “B (B (EC1.5 1-25 μM))” and the Emax is > 150%.
The corresponding values for `Cc1cc(-c2ccc3c(n2)N(C(=O)Nc2cccc4nnc(C)cc24)[C@H]2CCN3C2)ccn1` [(9S)-N-(3-methylcinnolin-5-yl)-5-(2-methylpyridin-4-yl)-1,6,8-triazatricyclo[7.2.1.0 {2,7}]dodeca-2(7),3,5-triene-8-carboxamide] are “B (B (EC1.5 1-25 μM))” and > 150%.
The corresponding values for `Cc1ccnc(NC(=O)N2c3nc(-c4ccnc(C)c4)ccc3N3CC[C@H]2C3)c1` [(9S)-N-(4-methylpyridin-2-yl)-5-(2-methylpyridin-4-yl)-1,6,8-triazatricyclo[7.2.1.0^2,7]dodeca-2,4,6-triene-8-carboxamide] are “B (B (EC1.5 1-25 μM))” and > 150%.
For `Cc1cc(-c2ccc3c(n2)N(C(=O)Nc2cnc(C4CC4)cn2)[C@H]2CCN3C2)ccn1` [(9S)-N-(5-cyclopropylpyrazin-2-yl)-5-(2-methylpyridin-4-yl)-1,6,8-triazatricyclo[7.2.1.0 {2,7}]dodeca-2(7),3,5-triene-8-carboxamide], in that order: “A (A (EC1.5<1 μM))” and > 150%.
As for `CCOc1cnc(NC(=O)N2c3nc(-c4ccnc(C)c4)ccc3N3CC[C@H]2C3)cn1` [(9S)-N-(5-ethoxypyrazin-2-yl)-5-(2-methylpyridin-4-yl)-1,6,8-triazatricyclo[7.2.1.0 {2,7}]dodeca-2(7),3,5-triene-8-carboxamide], the “TRP Activity (EC1.5)” value is listed as “B (B (EC1.5 1-25 μM))” and the Emax was > 150%.
`CCc1cnc(NC(=O)N2c3nc(-c4ccnc(C)c4)ccc3N3CC[C@H]2C3)cn1` [(9S)-N-(5-ethylpyrazin-2-yl)-5-(2-methylpyridin-4-yl)-1,6,8-triazatricyclo[7.2.1.0 {2,7}]dodeca-2(7),3,5-triene-8-carboxamide]: the “TRP Activity (EC1.5)” value was “A (A (EC1.5<1 μM))” and the Emax is > 150%.
With `CCc1cnc(NC(=O)N2c3nc(-c4ccc(C)nc4)ccc3N3CC[C@H]2C3)cn1` [(9S)-N-(5-ethylpyrazin-2-yl)-5-(6-methylpyridin-3-yl)-1,6,8-triazatricyclo[7.2.1.0^{2,7}]dodeca-2,4,6-triene-8-carboxamide], the “TRP Activity (EC1.5)” value is listed as “B (B (EC1.5 1-25 μM))” and the Emax was > 150%.

For the origin of these results see patent US9834558B2, “Substituted bridged urea analogs as sirtuin modulators” (GLAXOSMITHKLINE LLC, priority 2013, dated 2017).
